Reference: patent publication US6441133B1, “Thyrotropin-releasing hormone receptor 2(TRHR-2)” (AstraZeneca Canada Inc., priority 1996, dated 2002)
Read-outs that look alike come from different tables or passages of the source. One block for each molecule: values may come before it. Where a SMILES comes first, the peptide text is derived from it. Where no end group is shown, it is not given here. [ ]: non-standard residue; d: D form. pGlu = O=C1CC[C@@H](C(=O)O)N1

Assays:
[1] = target: TRH receptor of GH4C1 cells (TRHR-1) (UniProt Q01717); test: radioligand binding on whole GH4C1 cells
[2] = target: Thyrotropin-releasing hormone receptor 2 (TRHR-2), rat, expressed in HEK293s cells from pCDNA3-TRHR2 (rat); test: radioligand binding on whole cells, 293S/TRH-R clonal cell line
[3] = target: Thyrotropin-releasing hormone receptor 2 (TRHR-2), rat, expressed in HEK293s cells from pCDNA3-TRHR2 (rat); test: saturation radioligand binding on whole HEK 293 cells expressing TRHR-2
TRHR-2 [4] = target: T1, TRHR-2 (Rattus norvegicus, UniProt A6IZR3); test: 3H-TRH radioligand binding on whole HEK293s cells stably expressing TRHR-2
T1 construct: expressed in transfected cells; host or cells: HEK293s
T1 sequence (A6IZR3 1-352): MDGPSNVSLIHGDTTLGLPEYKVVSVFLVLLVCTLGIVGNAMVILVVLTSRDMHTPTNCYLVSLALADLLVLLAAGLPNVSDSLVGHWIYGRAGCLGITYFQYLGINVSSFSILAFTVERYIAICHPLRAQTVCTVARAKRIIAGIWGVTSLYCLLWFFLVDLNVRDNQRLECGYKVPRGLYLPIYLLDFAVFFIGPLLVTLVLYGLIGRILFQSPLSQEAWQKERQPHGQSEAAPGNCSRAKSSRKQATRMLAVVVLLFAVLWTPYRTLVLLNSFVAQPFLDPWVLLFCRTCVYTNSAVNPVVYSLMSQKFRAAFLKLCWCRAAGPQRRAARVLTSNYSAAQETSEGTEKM
Experimental: (§1) The TRH binding assay was performed on whole cells. Transfected cells were washed twice with HBSS (Gibco BRL, cat# 14065) supplemented with 0.05% bovine serum albumin, detached by gentle pipetting and aliquoted in eppendorf tubes for binding assays. One twentieth of the cells collected from a confluent 75 cm^2 flask was used per assay point. The binding reaction was performed in a total volume of […] of binding buffer (HBSS+0.05% bovine serum albumin) containing the transfected cells and 10 nM of^3H-thyrotropin releasing hormone (Peninsula Laboratories Inc, cat # 7501) with or without unlabelled competitors. Non-specific binding was estimated in the presence of 1 mM of unlabelled TRH. Reactions were carried out for 60 min at room temperature and reactions were stopped by filtration through Unifilters-96 GF/B filters (Canberra Packard cat # 6005177) using the 96-well Filtermat 196 filtration system from Canberra Packard. The filters were washed 3 times with 1 ml of washing buffer (50 mM Tris(HCl), 3 mM MgCl2, pH 7.0). They were then dried at 55° C. for one hour and 50 μl of mScint-20 (Canberra Packard) was added per well. Filters were counted with the Topcount microplate counter from Canberra Packard.
HEK293s cells in a 10 cm petri dish were transfected with […] pCDNA3-TRHR2. After 14 days of selection in culture medium containing 600 μg/ml G418, resistant colonies were pooled. Then, single clones were purified by 2 rounds of limited dilution in 96 well plates. Clones of HEK293s cells expressing different levels of TRHR-2 receptor were selected using a 3H-TRH binding assay.

[5] = target: T2, TRH receptor (TRHR-1) of GH4C1 cells (Rattus norvegicus, UniProt Q01717); test: 3H-TRH radioligand binding on GH4C1 cells
T2 construct: endogenous in cells; host or cells: GH4C1
T2 sequence (Q01717 1-412): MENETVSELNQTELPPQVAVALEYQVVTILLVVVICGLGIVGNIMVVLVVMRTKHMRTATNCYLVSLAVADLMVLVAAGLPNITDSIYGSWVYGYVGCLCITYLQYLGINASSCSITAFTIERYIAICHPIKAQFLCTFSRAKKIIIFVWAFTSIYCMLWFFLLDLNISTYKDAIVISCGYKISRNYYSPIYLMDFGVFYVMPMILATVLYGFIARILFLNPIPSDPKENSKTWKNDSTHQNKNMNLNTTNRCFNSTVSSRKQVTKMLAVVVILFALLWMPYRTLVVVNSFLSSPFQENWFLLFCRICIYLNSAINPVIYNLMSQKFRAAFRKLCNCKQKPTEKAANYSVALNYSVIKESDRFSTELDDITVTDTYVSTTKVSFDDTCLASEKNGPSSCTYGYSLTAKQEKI

TRHR-2 [6] = target: T1, TRHR-2; test: Intracellular calcium mobilization (Fura 2) in HEK293/TRHR-2 cells; assay type: cell-based
Experimental: Intracellular calcium concentration changes where determined by fluorescence measurement of the intracellular, calcium-sensitive indicator Fura 2. Briefly, HEK293s cells were grown on glass cover slips in culture medium at 37° C., 5% CO2 and diluted 10 fold every 3 days. The cells were loaded at room temperature for 30 min using […] of is Fura 2/AM in simplified Grace's solution (SGS buffer) physiological buffer (NBS: 135 mM NaCl, 5 mM KCl, 1.8 mM CaCl2, 1.2 mM MgSO4, 10 mM HEPES, pH 7.4). Fura 2/AM is a membrane permeant, calcium-insensitive ester of Fura 2. After three washes in Fura-2 /AM-free buffer, the cells were incubated for 15 to 30 min in SGNBS at room temperature to insure full hydrolysis of the Fura 2 ester. The calcium-sensitive, hydrolyzed form of Fura 2 remains trapped intracellularly. Experiments were conducted at room temperature on single cells or small groups of 3 to 7 cells in a coverslip holder fitted to the stage of an IMT-2 inverted microscope equipped with a 40×-epifluorescence objective (UVFL40, 0.85, Olympus Optical Co, Tokyo) and coupled to a PTI ratio fluorescence system (Photon Technology International, London, Ontario, Canada). Sample illumination was provided by a 75 W xenon light source attached to a filter-based light chopper unit which provided 340 and 380 nm excitation wavelength alternating at a frequency of 5 Hz. The emitted light was passed through an adjustable rectangular aperture followed by a 505 nm interference filter (10-nm bandwidth), and its intensity was recorded by a photon counter detector. Dye leakage, as determined by loss of fluorescence over a period of 30 min, was undetectable at both excitation wavelengths.
The ratio of the fluorescence intensity at the two excitation wavelengths can be converted into an estimate of ionized intracellular calcium concentration by use of the formula: [Ca^2+]i=Kd×(Fmin/Fmax)×(R-Rmin)/(Rmax-R), where R, Rmin, and Rmax are the fluorescence ratios recorded during the experiment (R) and during calibration tests on unlysed cells using […] ionomycin in SGNBS (Rmax), followed by 10 mM EGTA addition at pH 8.2 (Rmin). Fmin and Fmax are the corresponding fluorescence intensities for the 380 nm excitation and Kd is the Fura-2 dissociation constant at room temperature (135 nM).
Small volumes (10-50 μl) of drugs (hormones, agonists, neurotransmitters, TRH, bradykinin) from prediluted stock solutions prepared in the appropriate buffer solutions were directly added to the experimental chamber.

[7] = I.C.V. injection, on a molar basis (Boschi et al. 1983); cited from earlier work
[8] = target: Thyrotropin-releasing hormone receptor 2 (TRHR-2), rat, expressed in HEK293s cells from pCDNA3-TRHR2 (rat); test: competition with 3H-TRH tracer on whole cells, 293S/TRH-R clonal cell line
[9] = target: T3, Thyrotropin-releasing hormone receptor 2 (TRHR-2), rat, expressed in HEK293s cells from pCDNA3-TRHR2 (rat); test: as above
T3 construct: 352 amino acid open reading frame cloned from a rat brain stem-spinal cord cDNA library; also called TRH receptor 2; 293S/TRH-R clonal cell line
T3 chain: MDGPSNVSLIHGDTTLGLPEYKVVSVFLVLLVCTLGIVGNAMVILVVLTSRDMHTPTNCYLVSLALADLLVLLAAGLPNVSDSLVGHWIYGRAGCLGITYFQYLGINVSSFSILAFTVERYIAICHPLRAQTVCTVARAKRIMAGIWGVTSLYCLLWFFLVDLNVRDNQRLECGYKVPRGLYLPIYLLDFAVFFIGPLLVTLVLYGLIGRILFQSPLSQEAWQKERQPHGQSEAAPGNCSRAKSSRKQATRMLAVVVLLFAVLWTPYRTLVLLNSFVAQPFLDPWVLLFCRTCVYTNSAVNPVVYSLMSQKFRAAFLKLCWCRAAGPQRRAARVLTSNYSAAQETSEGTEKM
Experimental: as §1, with “cm²” for “cm^2”, “of ³H-thyrotropin” for “of^3H-thyrotropin”, “MgCl_2,” for “MgCl2,”, “µl” for “μl”
(§2) A binding reaction was performed using HEK 293 cells expressing TRHR-2. […] Various TRH-related peptides were used in competition experiments.

[10] = target: T3, Thyrotropin-releasing hormone receptor …; test: 3H-TRH competition on cells expressing TRHR-2 (assay not restated in the sentence)
Experimental: as §1, with “cm²” for “cm^2”, “of ³H-thyrotropin” for “of^3H-thyrotropin”, “MgCl_2,” for “MgCl2,”, “µl” for “μl”
as §2

[11] = 293S/TRH-R clonal cell line, three independent experiments, read-out: IC50
[12] = HEK 293 cells expressing TRHR-2, read-out: IC50 in competition with 3H-TRH as tracer
[13] = GH4C1 cells, three independent experiments
[14] = nanomolar concentrations of TRH

Molecule: 3H-thyrotropin releasing hormone (tritium-labelled TRH, Peninsula Laboratories) (peptide)
BMAX [1]: 577 fmol/mg
Kd [1]: 5.32 nM
BMAX [2]: 535 fmol/mg
Kd [2]: 6.17 nM
Bmax (fmol/mg proteins) [3]: 430
Kd [3]: 2.5 nM

Molecule: NC(=O)[C@@H]1CCCN1C(=O)[C@H](Cc1cnc[nH]1)NC(=O)[C@@H]1CCC(=O)N1 [TRH, pyroglutamic acid-histidine-proline-amide]
IC50 (TRHR-2 [4]; [11]): 8.39 ± 2.31 nM
IC50 (TRHR-2 [4]; [12]): 8.3 nM
IC50 [5, 13]: 5.33 ± 2.81 nM
need of extracellular calcium for the transient rise in [Ca++]i (TRHR-2 [6]): did not require the presence of extracellular calcium
change of intracellular calcium concentration (TRHR-2 [6]; [14]): marked transient increase in the intracellular calcium concentration
time to peak of [Ca++]i (TRHR-2 [6]; [14]): about 1 second
time until baseline [Ca++]i was attained (TRHR-2 [6]; [14]): about 1 minute
analgesia relative to morphine [7]: twice as great

Molecule: Thyrotropin-releasing hormone (TRH), pGlu-His-Pro-amide, unlabelled (peptide)
IC50 [8]: 8.39 nM

Molecule: ^3H-thyrotropin releasing hormone [^3H-TRH]
Kd (TRHR-2 [4]; 293S/TRH-R clonal cell line, three independent experiments, read-out: Kd): 6.17 ± 1.51 nM
Kd (TRHR-2 [4]; HEK 293 cells expressing TRHR-2, saturation binding, read-out: estimated Kd for 3H-TRH): 2.5 nM
Kd [5, 13]: 5.32 ± 1.63 nM

More lines, now with the values ahead:

IC50 (TRHR-2 [4]; [12]): 2.2 nM
IC50 [5, 13]: 0.43 ± 0.27 nM
Molecule: Cn1cnc(C[C@H](NC(=O)[C@@H]2CCC(=O)N2)C(=O)N2CCC[C@H]2C(N)=O)c1 [pGlu-3-methyl-His-Pro-amide]

IC50 (TRHR-2 [4]; [11]): > 10000 nM
IC50 (TRHR-2 [4]; [12]): > 10000 nM
IC50 [5, 13]: > 10000 nM
Molecule: NC(=O)[C@@H]1CCCN1C(=O)[C@H](CCC(=O)O)NC(=O)[C@@H]1CCC(=O)N1 [pGlu-Glu-Pro-amide] ([pGlu]-Glu-Pro-NH2)

IC50 (TRHR-2 [4]; [11]): 641 ± 75.2 nM
IC50 (TRHR-2 [4]; [12]): 640 nM
Ki (TRHR-2 [4]; read-out: Ki value to the TRHR-2 receptor): 640 nM
binding to GH4C1 cells [5]: does not show any binding
IC50 [5, 13]: > 10000 nM
Molecule: O=C(O)CNC(=O)[C@@H]1CCCN1C(=O)[C@H](Cc1c[nH]cn1)NC(=O)[C@@H]1CCC(=O)N1 [pGlu-His-Pro-Gly] ([pGlu]HPG-OH; C-terminus assumed)

IC50 [8]: 2.2 nM
Molecule: pGlu-3-methyl-His-Pro-amide (peptide)

IC50 [9]: 641 nM
Ki [10]: 640 nM
B1: pGlu-His-Pro-Gly (peptide)
peptide: [pGlu]HPG
notes: TRH-related peptide with a modified C-terminus
